Values belong to the compound of their own block, whether it stands above or below them.
Legend:
[1] = Miscibility / solubility of the fluorinated compound in the oil (MCT, PFOB); assay type: physicochemical
Experimental: The emulsion of the invention comprises the semifluorinated compound and preferably the mid-chain triglyceride (MCT). According to one aspect of the invention the oil components of the emulsion form a homogeneous solution at 20° C. […] The oil phase may comprise further oil components such as long chain fatty acid triglycerides based on vegetable oil or marine oils such as fish oil. The amount of the further oil components is preferable adjusted that a completely miscible oil phase is maintained. Generally, the amount of oil components which are different from the semifluorinated compound and triglyceride b) which is preferably the MCT, are less than 50 weight percent (wt.-%), preferably less than 40 wt.-%, more preferably less than 30 wt.-%, further preferably less than 20 wt.-%, especially less than 10 wt.-%, in particular less than 5 wt.-% or essentially free, wherein the amount is based on the total weight of the oil components.
Perfluoroctylbromide (PFOB) is a known contrast agent for the magnetic resonance spectroscopy.

[2] = Density measurement of mixtures of MCT and F6H8; assay type: physicochemical; settings: based on the total weight of the oil phase, FIG. 1C
From the text: By adapting the density of the oil phase to the density of the aqueous phase coalescence phenomena of the droplets as well as sedimentation phenomena, which destabilize the emulsion, can be decreased.
At about 38.5 wt.-% of F6H8 and about 61.5 wt.-% of MCT, (weight based on the total weight of the oil phase) the density of the oil mixture corresponds to the density of the aqueous phase.

- miscibility with MCT ([1]; 20° C.): miscible at 20 °C
- share of F6H8 in the oil phase (rest MCT, about 61.5 wt.-%) at which the density of the oil mixture corresponds to the density of the aqueous phase [2]: about 38.5 wt.-%
SMILES: CCCCCCCCC(F)(F)C(F)(F)C(F)(F)C(F)(F)C(F)(F)C(F)(F)F [Example F6H8, perfluorohexyloctane]

- solubility in PFOB [1]: can be dissolved in PFOB
SMILES: FC(F)(F)C(F)(F)C(F)(F)C(F)(F)C(F)(F)C(F)(F)C(F)(F)C(F)(F)C(F)(F)C(F)(F)Br [PFDB, perfluorodecylbromide]

- solubility in MCT [1]: cannot be dissolved in MCT
SMILES: FC(F)(F)C(F)(F)C(F)(F)C(F)(F)C(F)(F)C(F)(F)C(F)(F)C(F)(F)Br [PFOB, Perfluoroctylbromide]
